Among the data in patent US8268848B2, “Cyclopropane compound” (Eisai R&D Management Co., Ltd., priority 2010, dated 2012) are IC50 values, retold here.

Like-named read-outs stand apart in the source and are kept apart here.

The target in one experiment is T1, OX1 (Homo sapiens, UniProt O43613).
T1 sequence (O43613 1-425): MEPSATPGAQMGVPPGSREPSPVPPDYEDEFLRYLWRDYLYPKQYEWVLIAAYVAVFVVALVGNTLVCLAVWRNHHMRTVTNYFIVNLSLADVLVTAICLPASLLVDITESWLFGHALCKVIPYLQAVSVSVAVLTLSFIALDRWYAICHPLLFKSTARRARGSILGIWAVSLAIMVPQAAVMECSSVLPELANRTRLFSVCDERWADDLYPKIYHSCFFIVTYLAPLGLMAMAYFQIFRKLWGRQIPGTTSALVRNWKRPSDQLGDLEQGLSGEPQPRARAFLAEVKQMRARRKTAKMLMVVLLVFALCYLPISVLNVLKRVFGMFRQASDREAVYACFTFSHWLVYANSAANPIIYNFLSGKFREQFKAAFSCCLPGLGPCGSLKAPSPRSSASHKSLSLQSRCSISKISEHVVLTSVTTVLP
Briefly: Measurement of orexin receptor-binding ability ([125I]-OX-A, cell membranes, OX1). Set-up: expressed in transfected cells; host or cells: CHO cells (membrane preparation).

For another experiment, the target named is T2, OX2 (Homo sapiens, UniProt O43614).
T2 sequence (O43614 1-444): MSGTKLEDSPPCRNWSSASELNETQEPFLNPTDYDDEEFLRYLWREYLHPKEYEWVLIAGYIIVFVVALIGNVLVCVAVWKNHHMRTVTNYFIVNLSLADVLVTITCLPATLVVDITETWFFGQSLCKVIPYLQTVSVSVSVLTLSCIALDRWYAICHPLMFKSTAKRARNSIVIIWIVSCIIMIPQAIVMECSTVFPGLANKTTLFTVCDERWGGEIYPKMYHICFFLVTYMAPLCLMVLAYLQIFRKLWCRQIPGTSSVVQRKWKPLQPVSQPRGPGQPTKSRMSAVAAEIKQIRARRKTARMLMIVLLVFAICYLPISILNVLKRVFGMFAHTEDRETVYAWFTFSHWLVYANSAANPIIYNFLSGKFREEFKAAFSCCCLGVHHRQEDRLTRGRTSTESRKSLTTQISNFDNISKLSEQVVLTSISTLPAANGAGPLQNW
The experiment in a line: Measurement of orexin receptor-binding ability ([125I]-OX-A, cell membranes, OX2). To be noted: membranes of recombinant CHO cells expressing OX2, 0.2 nM [125I]-OX-A. Set-up: expressed in transfected cells; host or cells: CHO cells (membrane preparation).

Where [1] appears, read: membranes of recombinant CHO cells expressing OX1, 0.2 nM [125I]-OX-A, read-out: OX1 (IC50).

As usually defined, the IC50 is the concentration at which inhibition is half-maximal.

Take `COc1cc(F)cc([C@]2(COc3cnc(C)nc3C)C[C@H]2C(=O)Nc2ccc(F)cn2)c1` [Example 254]: the values for the 50% inhibitory concentration (IC50) on OX1 and at OX2 (OX2 (IC50) nM) were 0.109 µM and 11 nM, respectively.

As to `Cc1ncc(OC[C@@]2(c3ccccc3)C[C@H]2C(=O)Nc2ccnc(F)c2)c(C)n1` [Example 18], the results for the IC50 at OX1 (setting [1]) and at OX2 (read-out: OX2 (IC50)) were 0.344 µM and 33 nM, respectively.

For the compound `Cc1ncc(OC[C@@]2(c3ccccc3)C[C@H]2C(=O)Nc2cc(Cl)ccn2)c(C)n1` [Example 49], the half-maximal inhibitory concentration (IC50) came out at 0.065 µM on OX1 and 23 nM at OX2 (OX2 (IC50) nM).

Consider `Cc1ncc(OC[C@@]2(c3ccccc3)C[C@H]2C(=O)Nc2ccnc(C#N)c2)c(C)n1` [Example 41, (1R,2S)-N-(2-cyanopyridin-4-yl)-2-{[(2,4-dimethylpyrimidin-5-yl)oxy]methyl}-2-phenylcyclopropanecarboxamide], for which the IC50 on OX1 (setting [1]) was 0.125 µM; at OX2 (read-out: OX2 (IC50)), 8 nM.

Consider `Cc1ncc(OC[C@@]2(c3cccc(F)c3)C[C@H]2C(=O)Nc2ccc(I)cn2)c(C)n1` [Example 280], for which the IC50 on OX1 was found to be 0.024 µM; on OX2 (OX2 (IC50) nM), 21 nM.

In the case of `Cc1ncc(OCC2(c3ccccc3Cl)CC2C(=O)Nc2ccc(Cl)cn2)c(C)n1` (stereo not drawn) [Example 152], the figures for the 50% inhibitory concentration (IC50) at OX1 and at OX2 (OX2 (IC50) nM) were 0.058 µM and 36 nM, respectively.

For the compound `Cc1ncc(OCC2(c3ccccc3C)CC2C(=O)Nc2cccnc2)c(C)n1` (stereo not drawn) [Example 180], the IC50 on OX1 (setting [1]) was 0.231 µM; at OX2 (read-out: OX2 (IC50)), 33 nM.

With `Cc1ncc(OCC2(c3cccc(Br)c3)CC2C(=O)Nc2ccc(F)cn2)c(C)n1` (stereo not drawn) [Example 271], the IC50 was 0.018 µM at OX1 and 5 nM on OX2 (OX2 (IC50) nM).

For the compound `Cc1ncc(OC[C@@]2(c3ccc(F)c(F)c3)C[C@H]2C(=O)Nc2ccc(F)cc2F)c(C)n1` [Example 171], the values for the half-maximal inhibitory concentration (IC50) at OX1 (setting [1]) and at OX2 (read-out: OX2 (IC50)) were 0.043 µM and 11 nM, respectively.

For the compound `Cc1ncc(OC[C@@]2(c3cc(F)cc(F)c3)C[C@H]2C(=O)Nc2ccc(F)c(F)c2)c(C)n1` [Example 134, (1R,2S)-N-(3,4-difluorophenyl)-2-(3,5-difluorophenyl)-2-{[(2,4-dimethylpyrimidin-5-yl)oxy]methyl}cyclopropanecarboxamide], the IC50 on OX1 (setting [1]) is under 0.002 µM; on OX2 (read-out: OX2 (IC50)) it was 4 nM.

As to `Cc1ncc(OCC2(c3cccc(C(F)(F)F)c3)CC2C(=O)Nc2cccnc2)c(C)n1` (stereo not drawn) [Example 277], the half-inhibitory concentration (IC50) on OX1 (setting [1]) is 2.21 µM; on OX2 (read-out: OX2 (IC50)), 104 nM.

Turning to `Cc1ncc(OC[C@@]2(c3cc(F)cc(F)c3)C[C@H]2C(=O)Nc2ccc(Cl)cn2)c(C)n1` [Example 132, (1R,2S)-N-(5-chloropyridin-2-yl)-2-(3,5-difluorophenyl)-2-{[(2,4-dimethylpyrimidin-5-yl)oxy]methyl}cyclopropanecarboxamide], the concentration for half-maximal inhibition (IC50) at OX1 was 0.018 µM; at OX2 (OX2 (IC50) nM) it was 4 nM.

Take `Cc1ncc(OCC2(c3ccc(Cl)cc3)CC2C(=O)Nc2ccc(C#N)cn2)c(C)n1` (stereo not drawn) [Example 159]: the figures for the IC50 at OX1 (setting [1]) and on OX2 (read-out: OX2 (IC50)) were 0.624 µM and 62 nM, respectively.

For `COCc1nc(C)ncc1OC[C@@]1(c2cc(F)cc(F)c2)C[C@H]1C(=O)Nc1ccccn1` [Example 218, (1R,2S)-2-(3,5-difluorophenyl)-2-{[(4-methoxymethyl-2-methylpyrimidin-5-yl)oxy]methyl}-N-(pyridin-2-yl)cyclopropanecarboxamide], the IC50 at OX1 (setting [1]) is 0.01 µM; at OX2 (read-out: OX2 (IC50)) it was 3 nM.

Turning to `COc1cc(NC(=O)[C@@H]2C[C@@]2(COc2cnc(C)nc2C)c2ccccc2)cnc1F` [Example 327, (1R,2S)-2-{[(2,4-dimethylpyrimidin-5-yl)oxy]methyl}-N-(6-fluoro-5-methoxypyridin-3-yl)-2-phenylcyclopropanecarboxamide], the half-inhibitory concentration (IC50) on OX1 (setting [1]) stood at 0.192 µM; at OX2 (read-out: OX2 (IC50)), 3 nM.

On to `COCc1nc(C)ncc1OC[C@@]1(c2cccc(F)c2)C[C@H]1C(=O)Nc1ccc(C(F)(F)F)cn1` [Example 201, (1R,2S)-2-(3-fluorophenyl)-2-{[(4-methoxymethyl-2-methylpyrimidin-5-yl)oxy]methyl}-N-[5-(trifluoromethyl)pyridin-2-yl]cyclopropanecarboxamide], for which the IC50 at OX1 was determined as 0.005 µM; on OX2 (OX2 (IC50) nM) it was 4 nM.

For the compound `Cc1ncc(OC[C@@]2(c3ccccc3)C[C@H]2C(=O)Nc2cccc(C#N)c2)c(C)n1` [Example 80], the results for the IC50 at OX1 and at OX2 (OX2 (IC50) nM) were 0.054 µM and 16 nM, respectively.

`Cc1ncc(OC[C@@]2(c3ccc(F)c(F)c3)C[C@H]2C(=O)Nc2ccc(F)cc2)c(C)n1` [Example 165, (1R,2S)-2-(3,4-difluorophenyl)-2-{[(2,4-dimethylpyrimidin-5-yl)oxy]methyl}-N-(4-fluorophenyl)cyclopropanecarboxamide]: the half-inhibitory concentration (IC50) came out at 0.029 µM at OX1 (setting [1]) and 7 nM on OX2 (read-out: OX2 (IC50)).

As for `CCc1nc(C)ncc1OC[C@@]1(c2ccc(F)cc2)C[C@H]1C(=O)Nc1ccc(F)cn1` [Example 246, (1R,2S)-2-{[(4-ethyl-2-methylpyrimidin-5-yl)oxy]methyl}-2-(4-fluorophenyl)-N-(5-fluoropyridin-2-yl)cyclopropanecarboxamide], the IC50 on OX1 turned out to be 0.016 µM; at OX2 (OX2 (IC50) nM), 4 nM.

For the compound `Cc1ncc(OC[C@@]2(c3ccsc3)C[C@H]2C(=O)Nc2ccc(Cl)cn2)c(C)n1` [Example 269], the half-inhibitory concentration (IC50) on OX1 (setting [1]) is 0.264 µM; at OX2 (read-out: OX2 (IC50)), 23 nM.

In the case of `Cc1ncc(OC[C@@]2(c3ccc(F)c(F)c3)C[C@H]2C(=O)Nc2ccc(Cl)cn2)c(C)n1` [Example 168, (1R,2S)-N-(5-chloropyridin-2-yl)-2-(3,4-difluorophenyl)-2-{[(2,4-dimethylpyrimidin-5-yl)oxy]methyl}cyclopropanecarboxamide], the IC50 is 0.015 µM on OX1 and 4 nM at OX2 (OX2 (IC50) nM).

Consider `CCc1nc(C)ncc1OC[C@@]1(c2cccc(F)c2)C[C@H]1C(=O)Nc1cc(C)c(F)cn1` [Example 244, (1R,2S)-2-{[(4-ethyl-2-methylpyrimidin-5-yl)oxy]methyl}-N-(5-fluoro-4-methylpyridin-2-yl)-2-(3-fluorophenyl)cyclopropanecarboxamide], for which the IC50 on OX1 (setting [1]) is 0.003 µM; at OX2 (read-out: OX2 (IC50)), 5.3 nM.

In the case of `Cc1ncc(OC[C@@]2(c3ccccc3)C[C@H]2C(=O)Nc2cc(F)cc(F)n2)c(C)n1` [Example 76-1, (1R,2S)-N-(4,6-difluoropyridin-2-yl)-2-{[(2,4-dimethylpyrimidin-5-yl)oxy]methyl}-2-phenylcyclopropanecarboxamide], the half-maximal inhibitory concentration (IC50) at OX1 was found to be 0.489 µM; at OX2 (OX2 (IC50) nM), 61 nM.

For the compound `COCc1nc(C)ncc1OC[C@@]1(c2cccc(F)c2)C[C@H]1C(=O)Nc1cccc(F)c1` [Example 195, (1R,2S)-N,2-bis(3-fluorophenyl)-2-{[(4-methoxymethyl-2-methylpyrimidin-5-yl)oxy]methyl}cyclopropanecarboxamide], the figures for the IC50 on OX1 (setting [1]) and on OX2 (read-out: OX2 (IC50)) were 0.006 µM and 3 nM, respectively.

In the case of `Cc1ncc(OCC2(c3cc(F)ccc3F)CC2C(=O)Nc2ccc(F)cn2)c(C)n1` (stereo not drawn) [Example 163, 2-(2,5-difluorophenyl)-2-{[(2,4-dimethylpyrimidin-5-yl)oxy]methyl}-N-(5-fluoropyridin-2-yl)cyclopropanecarboxamide], the IC50 on OX1 is under 0.02 µM; on OX2 (OX2 (IC50) nM), 10 nM.

As for `COc1ncc(OC[C@@]2(c3ccccc3)C[C@H]2C(=O)Nc2ccc(C#N)cn2)c(C)n1` [Example 127, (1R,2S)-N-(5-cyanopyridin-2-yl)-2-{[(2-methoxy-4-methylpyrimidin-5-yl)oxy]methyl}-2-phenylcyclopropanecarboxamide], the IC50 at OX1 (setting [1]) came to 1.1 µM; at OX2 (read-out: OX2 (IC50)), 80 nM.

As for `CCc1nc(C)ncc1OC[C@@]1(c2ccccc2)C[C@H]1C(=O)Nc1cc(C)c(F)cn1` [Example 122], the figures for the 50% inhibitory concentration (IC50) on OX1 (setting [1]) and at OX2 (read-out: OX2 (IC50)) were under 0.02 µM and 7 nM, respectively.

Turning to `COCc1nc(C)ncc1OC[C@@]1(c2cccc(F)c2)C[C@H]1C(=O)Nc1ccc(Cl)cn1` [Example 198, (1R,2S)-N-(5-chloropyridin-2-yl)-2-(3-fluorophenyl)-2-{[(4-methoxymethyl-2-methylpyrimidin-5-yl)oxy]methyl}cyclopropanecarboxamide], the 50% inhibitory concentration (IC50) on OX1 was 0.005 µM; at OX2 (OX2 (IC50) nM) it was 4 nM.

In the case of `Cc1ncc(OCC2(c3cccc(F)c3F)CC2C(=O)Nc2ccc(F)cn2)c(C)n1` (stereo not drawn) [Example 162, 2-(2,3-difluorophenyl)-2-{[(2,4-dimethylpyrimidin-5-yl)oxy]methyl}-N-(5-fluoropyridin-2-yl)cyclopropanecarboxamide], the results for the 50% inhibitory concentration (IC50) at OX1 and at OX2 (OX2 (IC50) nM) were 0.065 µM and 13 nM, respectively.

As to `Cc1ncc(OCC2(c3ccccc3Cl)CC2C(=O)Nc2ccc(F)cn2)c(C)n1` (stereo not drawn) [Example 151], the half-inhibitory concentration (IC50) on OX1 amounted to 0.102 µM; on OX2 (OX2 (IC50) nM), 25 nM.
